From PubChem BioAssay (NCI)
Several values for one entry are separate records, joined by “and”; a condition that tells them apart may be missing. Equal entries are not always repeated.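 Tested at 5 concentrations; 48 h exposure; 96-well plates; endpoints linearly interpolated, else capped at highest concentration. Abbreviation: GI50, concentration required for 50% inhibition of growth. TGI marks complete inhibition of growth.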

Tests used:
Experiment in all cases: NCI-60 cell line screen, 48 h
CCRF-CEM leukemia = tested on: CCRF-CEM leukemia
EKVX NSCLC = tested on: EKVX NSCLC
HL-60(TB) leukemia = tested on: HL-60(TB) leukemia
HOP-62 NSCLC = tested on: HOP-62 NSCLC
HOP-92 NSCLC = tested on: HOP-92 NSCLC
KM20L2 colon = tested on: KM20L2 colon
NCI/ADR-RES ovarian = tested on: NCI/ADR-RES ovarian
OVCAR-8 ovarian = tested on: OVCAR-8 ovarian
SK-MEL-2 melanoma = tested on: SK-MEL-2 melanoma
SK-MEL-28 melanoma = tested on: SK-MEL-28 melanoma
SN12C renal = tested on: SN12C renal
ACHN renal = tested on: ACHN renal
M14 melanoma = tested on: M14 melanoma

Compound | TGI (CCRF-CEM leukemia) | TGI (EKVX NSCLC) | TGI (HL-60(TB) leukemia) | TGI (HOP-62 NSCLC) | TGI (HOP-92 NSCLC) | TGI (KM20L2 colon) | TGI (NCI/ADR-RES ovarian) | TGI (OVCAR-8 ovarian) | TGI (SK-MEL-2 melanoma) | TGI (SK-MEL-28 melanoma) | TGI (SN12C renal) | TGI (ACHN renal) | TGI (M14 melanoma) | GI50 (HL-60(TB) leukemia) | GI50 (HOP-92 NSCLC) | GI50 (KM20L2 colon) | GI50 (OVCAR-8 ovarian) | GI50 (SK-MEL-2 melanoma) | GI50 (SK-MEL-28 melanoma) | GI50 (SN12C renal)
CCCCCCCC/C=C\CCCCCCCCCCCC(=O)O | 57.5 µM | 92.8 µM | 34.6 µM | 63.6 µM | 101 µM | 122 µM | > 125 µM | > 109 µM | 31.1 µM | 108 µM | > 98 µM | – | – | – | – | – | – | – | – | –
N=c1nnc2ccc(Cl)cc2n1O | > 100 µM | > 100 µM | > 100 µM | > 100 µM | – | – | > 100 µM | 92.4 µM | > 100 µM | > 100 µM | > 100 µM | > 100 µM | > 100 µM | – | – | – | – | – | – | –
O=C1C=C[C@@H](COC2OC(CO)C(O)C(O)C2O)O1 (some centres undefined) | 13.9 µM and 40.8 µM | 39.1 µM | 15.4 µM and 5.22 µM | > 100 µM | 30.3 µM and 36 µM | 38 µM | 28 µM and 34.8 µM | > 100 µM and 66.5 µM | 36.3 µM and 32.8 µM | 26.1 µM and > 100 µM | 24.4 µM and 19 µM | – | – | 2.75 µM | 14.3 µM | 14.4 µM | 4.61 µM | 15.3 µM | 11.8 µM | 8.38 µM
Nc1c(S(=O)(=O)O)cc2cc(S(=O)(=O)O)ccc2c1N=Nc1ccc(-c2ccc(N=Nc3c(N)c(S(=O)(=O)O)cc4cc(S(=O)(=O)O)ccc34)c(S(=O)(=O)O)c2)cc1 | > 100 µM | > 100 µM | > 100 µM | > 100 µM | > 100 µM | > 100 µM | > 100 µM | > 100 µM | > 100 µM | > 100 µM | > 100 µM | – | – | – | – | – | – | – | – | –
CCN(CC)CCNC(=O)c1cc2cc(NC(=O)c3cc4cc([N+](=O)[O-])ccc4[nH]3)ccc2[nH]1 | – | > 100 µM | – | > 100 µM | > 50.7 µM | – | > 100 µM | > 100 µM | > 100 µM | 66.8 µM | > 100 µM | > 100 µM | > 100 µM | – | – | – | – | – | – | –
Cc1ccc(NC(=O)CC2Sc3ccccc3NC2=O)cc1C (centres undefined) | 92.3 µM | > 100 µM | 66.1 µM | > 100 µM | 95.8 µM | > 100 µM | – | > 100 µM | > 100 µM | > 100 µM | > 100 µM | > 100 µM | > 100 µM | – | – | – | – | – | – | –
Nc1nc(SCCC/C=C/I)nc2c1ncn2C1OC(COP(=O)(O)O)C(O)C1O (centres undefined) | > 100 µM | > 100 µM | > 100 µM | > 100 µM | > 100 µM | > 100 µM | – | > 100 µM | > 100 µM | > 100 µM | > 100 µM | > 100 µM | > 100 µM | – | – | – | – | – | – | –
N#C/C(=C1/Sc2c(nc[nH]c2=O)N1c1ccccc1)c1nc2ccccc2[nH]1 | > 100 µM | > 100 µM | > 100 µM | > 100 µM | > 100 µM | > 100 µM | – | > 100 µM | > 100 µM | > 100 µM | > 100 µM | > 100 µM | > 100 µM | – | – | – | – | – | – | –
Oc1ccc(-c2nc3ccc(Br)cc3s2)cc1 | 16.5 µM | 28.6 µM | 56.3 µM | – | – | – | 67.3 µM | 49.3 µM | 33.3 µM | – | 49.6 µM | 62.8 µM | 39.6 µM | – | – | – | – | – | – | –
CC1=C(Cl)C=CP(=O)(Oc2ccccc2)C1 (centres undefined) | > 10 µM | > 100 µM | > 10 µM | > 100 µM | > 100 µM | > 100 µM | – | 60.6 µM | > 100 µM | > 100 µM | – | > 100 µM | 38.2 µM | – | – | – | – | – | – | –
COc1ccc(/C=c2\sc3n(c2=O)CCN=3)cc1 | > 100 µM | > 100 µM | > 100 µM | > 100 µM | 95.8 µM | > 100 µM | – | > 100 µM | > 100 µM | > 100 µM | > 100 µM | > 100 µM | > 100 µM | – | – | – | – | – | – | –
